Data published in US20240228488A1 (TAKEDA PHARMACEUTICAL COMPANY LIMITED, priority 2021, published 2024).
pEC50: −log10 of the molar value.

biological target: human activated kallikrein enzyme (Homo sapiens, UniProt P03952); assay: Plasma kallikrein inhibition, fluorogenic PFR-AMC substrate, 500 pM activated kallikrein format; format: biochemical; conditions: 500 pM activated kallikrein, 300 uM PFR-AMC, 30 min preincubation, 10 min reaction; read-out: Primary Dose Response Assay: Average EC50
Procedure, shortened: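 Fluorogenic readout (ex 380 / em 460 nm) after 10 min room-temperature reaction with 300 uM Pro-Phe-Arg-AMC substrate, following 30 min preincubation of inhibitors with 500 pM enzyme. Buffer: Tris pH 7.5, EDTA, NaCl, PEG-400, Triton X-100. Values given as EC50 ranges.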

Chain of human activated kallikrein enzyme (P03952 391-638 limits assumed): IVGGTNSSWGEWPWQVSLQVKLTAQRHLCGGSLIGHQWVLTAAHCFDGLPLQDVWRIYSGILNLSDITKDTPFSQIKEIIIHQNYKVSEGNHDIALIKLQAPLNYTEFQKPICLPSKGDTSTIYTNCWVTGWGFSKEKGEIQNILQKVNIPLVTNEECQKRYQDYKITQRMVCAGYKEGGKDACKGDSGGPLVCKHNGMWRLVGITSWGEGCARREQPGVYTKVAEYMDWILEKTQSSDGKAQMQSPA
Chain of human activated kallikrein enzyme (P03952 20-390 partner limits assumed): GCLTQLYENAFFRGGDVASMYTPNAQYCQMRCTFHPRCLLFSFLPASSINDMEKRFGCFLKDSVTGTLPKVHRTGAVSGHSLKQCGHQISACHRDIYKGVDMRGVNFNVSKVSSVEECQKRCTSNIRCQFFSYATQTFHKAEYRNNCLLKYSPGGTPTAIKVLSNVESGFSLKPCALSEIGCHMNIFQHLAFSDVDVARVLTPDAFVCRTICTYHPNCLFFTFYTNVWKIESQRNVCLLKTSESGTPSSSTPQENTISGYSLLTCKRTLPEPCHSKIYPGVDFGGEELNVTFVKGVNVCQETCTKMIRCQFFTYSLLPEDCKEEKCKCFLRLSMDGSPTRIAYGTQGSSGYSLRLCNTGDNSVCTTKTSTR

SMILES	pEC50
O=C(Nc1nccc2cn(Cc3cn4cc(C5CC5)ccc4n3)nc12)[C@H]1C[C@@H]1c1cccc(Cl)c1 (racemic) [Example 592, rac-(1S*,2S*)-2-(3-chlorophenyl)-N-(2-((6-cyclopropylimidazo[1,2-a]pyridin-2-yl)methyl)-2H-pyrazolo[3,4-c]pyridin-7-yl)cyclopropane-1-carboxamide]	8.00 to 9.00
N#Cc1ccc(Cl)cc1[C@@H]1C[C@H]1C(=O)Nc1cc(NCc2cn3cc(C4CC4)ccc3n2)ccn1 (single isomer, unassigned) [Example 83]	7.00 to 8.00
O=C(Nc1nccc2c1cnn2Cc1cn2cc(C3CC3)ccc2n1)[C@H]1C[C@@H]1c1cccc(Cl)c1 [Example 584, (1S,2S)-2-(3-chlorophenyl)-N-(1-((6-cyclopropylimidazo[1,2-a]pyridin-2-yl)methyl)-1H-pyrazolo[4,3-c]pyridin-4-yl)cyclopropane-1-carboxamide]	5.22 to 6.00
Cc1ccnc([C@H]2C[C@@H]2C(=O)Nc2cc(N[C@H](C)c3cn4cc(C5CC5)cc(N5CC6CC6C5=O)c4n3)nc(C)n2)n1 (stereo partly drawn) [Example 433, (1S,2S)-N-(6-(((1R)-1-(6-cyclopropyl-8-(2-oxo-3-azabicyclo[3.1.0]hexan-3-yl)imidazo[1,2-a]pyridin-2-yl)ethyl)amino)-2-methylpyrimidin-4-yl)-2-(4-methylpyrimidin-2-yl)cyclopropane-1-carboxamide]	> 9.00
Cc1ccnc([C@H]2C[C@@H]2C(=O)Nc2cc(OC(C)c3cn4cc(C5CC5)cc(N5CC(=O)N(C)C5=O)c4n3)c(C)nn2)n1 (stereo partly drawn) [Example 35, (1S,2S)-N-(5-(1-(6-cyclopropyl-8-(3-methyl-2,4-dioxoimidazolidin-1-yl)imidazo[1,2-α]pyridin-2-yl)ethoxy)-6-methylpyridazin-3-yl)-2-(4-methylpyrimidin-2-yl)cyclopropane-1-carboxamide]	> 9.00
O=C(Nc1cc(OCc2cn3cc(C4CC4)ccc3n2)cnn1)[C@H]1C[C@@H]1c1cccc(Cl)c1 (racemic) [Example 103, rac-(1S*,2S*)-2-(3-chlorophenyl)-N-(5-((6-cyclopropylimidazo[1,2-a]pyridin-2-yl)methoxy)pyridazin-3-yl)cyclopropane-1-carboxamide]	7.00 to 8.00
CC(C)(C)OC(=O)N1CC(c2cc(C3CC3)cn3cc(CNc4ccnc(NC(=O)[C@H]5C[C@@H]5c5cccc(Cl)c5)c4)nc23)C1 [Example I-226, tert-butyl 3-(2-(((2-((1S,2S)-2-(3-chlorophenyl)cyclopropane-1-carboxamido)pyridin-4-yl)amino)methyl)-6-cyclopropylimidazo[1,2-a]pyridin-8-yl)azetidine-1-carboxylate]	7.00 to 8.00
Nc1cc(C2CC2)cn2cc(CNc3cc(NC(=O)[C@H]4C[C@@H]4c4cccc(Cl)c4)ncn3)nc12 [Example 308, (1S,2S)—N-(6-(((8-amino-6-cyclopropylimidazo[1,2-a]pyridin-2-yl)methyl)amino)pyrimidin-4-yl)-2-(3-chlorophenyl)cyclopropane-1-carboxamide]	8.00 to 9.00
C[C@H]1[C@H](C(=O)Nc2cc(NCc3cn4cc(C5CC5)ccc4n3)ncn2)[C@H]1c1cccc(Cl)c1 (single isomer, unassigned) [Example 508, (1R*,2R*,3S*)-2-(3-chlorophenyl)-N-(6-(((6-cyclopropylimidazo[1,2-a]pyridin-2-yl)methyl)amino)pyrimidin-4-yl)-3-methylcyclopropane-1-carboxamide]	< 5.22
O=C(Nc1nccc2nn(Cc3cn4cc(C5CC5)ccc4n3)cc12)[C@H]1C[C@@H]1c1cc(Cl)ccc1-n1cnnn1 (racemic) [Example 586, rac-(1S*,2S*)-2-(5-chloro-2-(1H-tetrazol-1-yl)phenyl)-N-(2-((6-cyclopropylimidazo[1,2-a]pyridin-2-yl)methyl)-2H-pyrazolo[4,3-c]pyridin-4-yl)cyclopropane-1-carboxamide]	> 9.00
Cc1ccnc([C@H]2C[C@@H]2C(=O)Nc2cc(NCc3cn4cc(Cl)cc(N5CC(=O)N(C)C5=O)c4n3)ncn2)n1 [Example 380, (1S,2S)-N-(6-(((6-chloro-8-(3-methyl-2,4-dioxoimidazolidin-1-yl)imidazo[1,2-a]pyridin-2-yl)methyl)amino)pyrimidin-4-yl)-2-(4-methylpyrimidin-2-yl)cyclopropane-1-carboxamide]	> 9.00
Cc1ccnc([C@H]2C[C@@H]2C(=O)Nc2cc(N[C@H](C)c3cn4cc(C5CC5)cc(N5CC(=O)N(C)C5=O)c4n3)nc(CCO)n2)n1 [Example 468, (1S,2S)—N-(6-(((R)-1-(6-cyclopropyl-8-(3-methyl-2,4-dioxoimidazolidin-1-yl)imidazo[1,2-a]pyridin-2-yl)ethyl)amino)-2-(2-hydroxyethyl)pyrimidin-4-yl)-2-(4-methylpyrimidin-2-yl)cyclopropane-1-carboxamide]	> 9.00
Cc1ccnc([C@H]2C[C@@H]2C(=O)Nc2cc(C(O)Cc3cn4cc(C5CC5)cc(N5CC(=O)N(C)C5=O)c4n3)nc(C)n2)n1 (stereo partly drawn) [Example 674, (1S,2S)—N-(6-(2-(6-cyclopropyl-8-(3-methyl-2,4-dioxoimidazolidin-1-yl)imidazo[1,2-a]pyridin-2-yl)-1-hydroxyethyl)-2-methylpyrimidin-4-yl)-2-(4-methylpyrimidin-2-yl)cyclopropane-1-carboxamide]	7.00 to 8.00
Cc1ccnc([C@H]2C[C@@H]2C(=O)Nc2cc(N[C@H](C)c3cn4cc(C5(F)CC5)cc(N5CC(=O)N(C)C5=O)c4n3)nc(C)n2)n1 [Example 436, (1S,2S)-N-(6-(((R)-1-(6-(1-fluorocyclopropyl)-8-(3-methyl-2,4-dioxoimidazolidin-1-yl)imidazo[1,2-a]pyridin-2-yl)ethyl)amino)-2-methylpyrimidin-4-yl)-2-(4-methylpyrimidin-2-yl)cyclopropane-1-carboxamide]	> 9.00
O=C(Nc1cc(NCc2cn3cc(C4CC4)cc(Cl)c3n2)ncn1)[C@H]1C[C@@H]1c1cccc(Cl)c1 (racemic) [Example 59, rac-(1S*,2S*)-N-(6-(((8-chloro-6-cyclopropylimidazo[1,2-α]pyridin-2-yl)methyl)amino)pyrimidin-4-yl)-2-(3-chlorophenyl)cyclopropane-1-carboxamide]	8.00 to 9.00
CN(C(=O)[C@H]1C[C@@H]1c1cccc(Cl)c1)c1cc(NCc2cn3cc(C4CC4)ccc3n2)ncn1 [Example 350, (1S,2S)-2-(3-chlorophenyl)-N-(6-(((6-cyclopropylimidazo[1,2-a]pyridin-2-yl)methyl)amino)pyrimidin-4-yl)-N-methylcyclopropane-1-carboxamide]	< 5.22
Cc1ccnc([C@H]2C[C@@H]2C(=O)Nc2cc(O)cc(OCc3cn4cc(C5CC5)cc(N5CC(=O)N(C)C5=O)c4n3)n2)n1 [Example 661, (1S,2S)—N-(6-((6-cyclopropyl-8-(3-methyl-2,4-dioxoimidazolidin-1-yl)imidazo[1,2-a]pyridin-2-yl)methoxy)-4-hydroxypyridin-2-yl)-2-(4-methylpyrimidin-2-yl)cyclopropane-1-carboxamide]	8.00 to 9.00
Cc1ccnc([C@H]2C[C@@H]2C(=O)Nc2cc(OCc3ccccc3)cc(OCc3cn4cc(C5CC5)cc(N5CC(=O)N(C)C5=O)c4n3)n2)n1 [Example 660, (1S,2S)—N-(4-(benzyloxy)-6-((6-cyclopropyl-8-(3-methyl-2,4-dioxoimidazolidin-1-yl)imidazo[1,2-a]pyridin-2-yl)methoxy)pyridin-2-yl)-2-(4-methylpyrimidin-2-yl)cyclopropane-1-carboxamide]	7.00 to 8.00
Cc1cc(N2CC(=O)N(C)C2=O)c2nc(C(C)Oc3cnnc(NC(=O)[C@H]4C[C@@H]4c4nccc(C)n4)c3)cn2c1 (stereo partly drawn) [Example 36, (1S,2S)-N-(5-(1-(6-methyl-8-(3-methyl-2,4-dioxoimidazolidin-1-yl)imidazo[1,2-α]pyridin-2-yl)ethoxy)pyridazin-3-yl)-2-(4-methylpyrimidin-2-yl)cyclopropane-1-carboxamide]	> 9.00
O=C(Nc1cc(NCc2cn3cc(C4CC4)cc(OC4CNC4)c3n2)ncn1)[C@H]1C[C@@H]1c1cccc(Cl)c1 [Example 306, (1S,2S)—N-(6-(((8-(azetidin-3-yloxy)-6-cyclopropylimidazo[1,2-a]pyridin-2-yl)methyl)amino)pyrimidin-4-yl)-2-(3-chlorophenyl)cyclopropane-1-carboxamide]	> 9.00
O=C(Nc1cc(NCc2cn3cc(C4CC4)ccc3n2)ncn1)[C@H]1C[C@@H]1c1cc(F)cc(Cl)c1 (racemic) [Example 46, rac-(1S*,2S*)-2-(3-chloro-5-fluorophenyl)-N-(6-(((6-cyclopropylimidazo[1,2-a]pyridin-2-yl)methyl)amino)pyrimidin-4-yl)cyclopropane-1-carboxamide]	7.00 to 8.00
N#Cc1ccc(Cl)cc1[C@@H]1C[C@H]1C(=O)Nc1cc(NCc2cn3cc(C4CC4)ccc3n2)cnn1 (racemic) [Example 102, rac-(1S*,2S*)-2-(5-chloro-2-cyanophenyl)-N-(5-(((6-cyclopropylimidazo[1,2-a]pyridin-2-yl)methyl)amino)pyridazin-3-yl)cyclopropane-1-carboxamide]	8.00 to 9.00
O=C(Nc1cc(NCc2cn3cc(C4CC4)ccc3n2)ccn1)[C@@H]1C[C@H]1c1cccc(Cl)c1 (single isomer, unassigned) [Example 116]	6.00 to 7.00
O=C(Nc1cc(NCc2cn3cc(C4CC4)cc(N4CCCC4=O)c3n2)ncn1)[C@H]1C[C@@H]1c1cccc(Cl)c1 (racemic) [Example 58, rac-(1S*,2S*)-2-(3-chlorophenyl)-N-(6-(((6-cyclopropyl-8-(2-oxopyrrolidin-1-yl)imidazo[1,2-α]pyridin-2-yl)methyl)amino)pyrimidin-4-yl)cyclopropane-1-carboxamide]	8.00 to 9.00

same assay, conditions: comparative compounds, 500 pM activated kallikrein format; read-out: Primary Dose Response Assay: Average EC50

SMILES	pEC50
O=C(NCCc1cccc(Br)c1)c1cnn(Cc2cn3cc(C4CC4)ccc3n2)c1	5.22 to 6.00
Clc1cccc([C@H]2C[C@@H]2CNc2cc(NCc3cn4cc(C5CC5)ccc4n3)ncn2)c1	6.00 to 7.00
